Tested on: cytokine and chemokine in bronchoalveolar lavage fluid (BALF)
Test: Ovalbumin (OVA)-sensitized phenol-induced COPD animal model, cytokine and chemokine detection in BALF
Assay type: in vivo, Female BALB/c ByJNarl mice
Settings: OVA-sensitized mice exposed to phenol aqueous aerosols for 3 weeks, aerosol inhalation; FIG. 3
Procedure: Four types of aerosol drugs with varying formulation are separately named as drug A, drug B, drug C and NAC. Drug A, drug B and drug C are mainly composed by Houttuynia Cordata Thunb aqueous extract. Drug A (HCA-A) is pure Houttuynia Cordata Thunb aqueous extract. Drug B (HCA-B) is comprised of Houttuynia Cordata Thunb aqueous extract and 500 μM GSH, while Drug C (HCA-C) is comprised of Houttuynia Cordata Thunb aqueous extract, 500 µM GSH and 500 μM BP. NAC is a mucolytic and antioxidant drug already prevalently used in clinic that are known to modulate several pathways of inflammation. NAC is used here as the positive control to compare the efficacy of aerosol formulation of Houttuynia Cordata Thunb in this study.
The OVA-sensitized mice were firstly placed in a custom-built 40 cm×40 cm×30 cm whole-body acrylic exposure chamber, which was filled and continuously replenished with phenol aqueous aerosols (PAA) for 30 minutes, twice per day for three consecutive weeks. PAA were prepared by atomizing 0.25M aqueous phenol solution via a high flow, liquid-feed atomizer (Model 9306, TSI).
Female BALB/c ByJNarl mice (age: 6-8 weeks, weight: 20-25 g) were purchased from National Laboratory Animal Center (NLAC, NARLabs, Taiwan) and approved by the Institutional Animal Care and Use Committee (IACUC) for the experiment of phenol aerosol exposure and inhalation therapy on OVA-treated mice. […]

CC(=O)N[C@@H](CS)C(=O)O [NAC, N-Acetylcysteine] was tested, and the “Interleukin 1α (IL-1α) level in BALF” value was “did not show apparent reduction”.

— patent US20250235498A1, “METHODS OF TREATING OR PREVENTING RESPIRATORY DISEASE WITH HOUTTUYNIA CORDATA THUNB-BASED AEROSOL INHALATION THERAPY” (National Sun Yat-sen University, priority 2024, published 2025)
